# ChEMBL document CHEMBL1157261, “Neuroprotective 2-(2-phenylethyl)chromones of Imperata cylindrica” (2006)
# Experiment: Neuroprotective activity against glutamate-induced neurotoxicity in Sprague-Dawley rat cortical cells at 10 uM after 24 hrs by MTT assay relative to control
# Format: functional
row,SMILES,Activity [%]
1,O=c1cc(/C=C/c2ccccc2)oc2cccc(O)c12,-11.3
2,O=c1cc(CCc2ccccc2)oc2cccc(O)c12,67
3,O=c1cc(CCc2ccccc2O)oc2cccc(O)c12,63.6
4,C[C@]12N[C@H](Cc3ccccc31)c1ccccc12.O=C(O)/C=C\C(=O)O [DIZOCILPINE MALEATE],82.2
